Reference: patent US20170246176A1, “PHACOSCLEROSIS INHIBITOR” (KEIO UNIVERSITY, priority 2014, published 2017)

Legend:
[1] = tested on: cornea state of the rat exposed to mainstream smoke; assay: Fluorescent staining of cornea after smoking treatment by exposure to mainstream smoke; type: in vivo, Sprague-Dawley (SD) rats; settings: male SD rats, smoking treatment 12 days, instillation 5 μL per eye, once before and 3 times after smoking treatment, 0.1% tiopronin or 0.005% pirenoxine (Catalin)
Description: (§1) Male 6-8-week-old Sprague-Dawley (SD) rats were divided into 4 groups, each group with 4 rats, and they were used as a nonsmoking treatment group (NT), a smoking treatment group (Smoking), a smoking treatment+0.1% tiopronin instillation group (S+0.1% Tiopronin), and a smoking treatment +0.005% pirenoxine instillation group (S+Catalin).
(§2) Tiopronin (Thiola Tab. 100, manufactured by Mylan EPD) was prepared to provide an active ingredient amount of 0.1 w/v %, whereby an ophthalmic solution was produced. Catalin For Ophthalmic 0.005% (manufactured by Senju Pharmaceutical Co., Ltd.) was used for the 0.005% pirenoxine instillation group. Each eye was instilled with 5 μL per instillation. Instillation was performed for 12 days, once before the following smoking treatment and 3 times after the treatment.
The smoking treatment was performed as follows by reference to the method of Higuchi et al. (Free Radic. Biol. Med., 2011, Vol. 51, pages 2210-2216). Rats were placed in a smoking chamber and 300 mL of mainstream smoke was added into the chamber with a syringe. Male 6-8-week-old SD rats (maximum 12 rats) were placed in a smoking chamber (60 cm×40 cm×35 cm) produced for the experiment, and fresh air was supplied into the chamber with an air pump. Tobacco (Seven Star. (registered trade mark)) was set on a 50 mL syringe, and the mainstream smoke was sucked and blown into the chamber. This suction operation was repeated 6 times, a total 300 mL of the mainstream smoke was added into the chamber, and the rats were left standing for 30 min while delivering fresh air by the pump. A similar operation was repeated 5 times more (total 6 times), thereby exposing the rats to the mainstream smoke for 3 hr in total per day. […] The body weight of the rats that underwent the smoking treatment for 12 days and the nonsmoking group was measured, and cornea, lacrimal gland, crystalline lens were harvested. […] Of the rats that underwent the smoking treatment, the instillation group (S+Tiopronin, S+Catalin) and the noninstillation group (Smoking) were compared for the fluorescence score.

[2] = tested on: hardening of crystalline lens due to exposure to mainstream smoke in rat; assay: Measurement of crystalline lens hardness after smoking treatment; type: in vivo, Sprague-Dawley (SD) rats; settings: male SD rats, smoking treatment 12 days; instillation 5 μL per eye, once before and 3 times after smoking treatment; 0.1% tiopronin or 0.005% pirenoxine (Catalin); Dunnett method, p<0.01
Description: as §1
as §2, with “Instillation was performed for 12 days, once before the following smoking treatment and 3 times after the treatment.” left out
The smoking treatment was performed as follows by reference to the method of Higuchi et al. (Free Radic. Biol. Med., 2011, Vol. 51, pages 2210-2216). […] The body weight of the rats that underwent the smoking treatment for 12 days and the nonsmoking group was measured, and cornea, lacrimal gland, crystalline lens were harvested. […] Of the rats that underwent the smoking treatment, the instillation group (S+Tiopronin, S+Catalin) and the noninstillation group (Smoking) were compared for the fluorescence score.
The crystalline lens isolated from the eyeball in Example 1 was measured for the crystalline lens hardness by the following method. […]

SMILES | fluorescent staining score of cornea (corneal state), instillation group vs noninstillation smoking group [1] | fluorescent staining score of cornea (corneal state), instillation group vs noninstillation smoking group ([1]; listed as Catalin) | hardness of the crystalline lens (weight divided by distance), vs smoking treatment group [2]
O=C(O)c1cc(O)c2c3nc4ccccc4oc-3cc(=O)c2n1 [pirenoxine, 1-hydroxy-5-oxo-5H-pyrido[3,2-α]phenoxazine-3-carboxylic acid] | showed a tendency toward improvement | exacerbation of the corneal state due to instillation was not found | an increase in the hardness was significantly suppressed
CC(S)C(=O)NCC(=O)O (centres unmarked) [tiopronin, N-(2-mercaptopropionyl)glycine] | exacerbation of the corneal state due to instillation was not found | – | an increase in the hardness was significantly suppressed
